The values that follow come from ChEMBL document CHEMBL5727155, “Ethynyl derivatives” (2018).

The target of this assay is Metabotropic glutamate receptor 4 (Homo sapiens, UniProt Q14833). The experiment in a line: Ca2+ Mobilization In Vitro Assay: A monoclonal HEK-293 cell line stably transfected with a cDNA encoding for the human mGlu4 receptor was generated; for the work with mGlu4 Positive Allosteric Modulators (PAMs), a cell line with low receptor expression levels and low constitutive receptor activity was selected to allow the differentiation of agonistic versus PAM activity. Cells were cultured according to standard protocols (Freshney, 2000) in Dulbecco's Modified Eagle Medium with high glucose supplemented with 1 mM glutamine, 10% (vol/vol) heat-inactivated bovine calf serum, Penicillin/Streptomycin, 50 μg/ml hygromycin and 15 μg/ml blasticidin (all cell culture reagents and antibiotics from Invitrogen, Basel, Switzerland).About 24 hrs before an experiment, 5×10^4 cells/well were seeded in poly-D-lysine coated, black/clear-bottomed 96-well plates. The cells were loaded with 2.5 μM Fluo-4AM in loading buffer (1×HBSS, 20 mM HEPES) for 1 hr at 37° C. and washed five times with loading buffer. The cells were transferred into a Functional Drug Screening System 7000 (Hamamatsu, Paris, France), and 11 half logarithmic serial dilutions of test compound at 37° C. were added and the cells were incubated for 10-30 min. with on-line recording of fluorescence. […].
Sequence of Metabotropic glutamate receptor 4 (Q14833 whole entry): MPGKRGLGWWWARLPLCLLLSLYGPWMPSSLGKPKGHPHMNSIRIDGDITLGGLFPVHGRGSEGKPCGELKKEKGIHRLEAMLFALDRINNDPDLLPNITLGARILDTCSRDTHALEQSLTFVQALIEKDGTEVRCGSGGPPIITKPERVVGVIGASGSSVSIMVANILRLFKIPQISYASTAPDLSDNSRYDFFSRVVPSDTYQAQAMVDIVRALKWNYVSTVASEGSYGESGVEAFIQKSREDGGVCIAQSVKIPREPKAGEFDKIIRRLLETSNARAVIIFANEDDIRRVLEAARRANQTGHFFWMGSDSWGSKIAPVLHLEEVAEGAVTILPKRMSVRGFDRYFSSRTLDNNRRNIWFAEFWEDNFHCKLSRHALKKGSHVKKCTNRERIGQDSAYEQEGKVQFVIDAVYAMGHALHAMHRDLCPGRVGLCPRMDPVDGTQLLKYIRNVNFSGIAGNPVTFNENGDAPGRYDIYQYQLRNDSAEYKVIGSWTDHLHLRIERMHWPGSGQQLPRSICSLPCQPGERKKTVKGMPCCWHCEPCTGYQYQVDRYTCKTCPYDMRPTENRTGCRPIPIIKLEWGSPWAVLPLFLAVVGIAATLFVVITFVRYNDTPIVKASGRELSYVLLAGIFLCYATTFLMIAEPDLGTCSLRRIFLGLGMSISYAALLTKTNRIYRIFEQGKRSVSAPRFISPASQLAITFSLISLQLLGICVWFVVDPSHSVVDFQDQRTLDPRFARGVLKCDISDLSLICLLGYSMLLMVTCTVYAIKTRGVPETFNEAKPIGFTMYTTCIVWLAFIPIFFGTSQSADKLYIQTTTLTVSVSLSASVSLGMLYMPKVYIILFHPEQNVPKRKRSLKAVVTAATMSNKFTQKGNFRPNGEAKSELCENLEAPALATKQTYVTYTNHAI

Turning to `CC(C)(C)Oc1ncc(N2CCN3C(=O)N(c4c(F)cc(C#Cc5ccccc5)cc4F)C(=O)C[C@@]3(C)C2=O)cn1`, the concentration giving a half-maximal response (EC50) was determined as 157 nM.
